The target of one experiment is EphA2 (Homo sapiens (Human), UniProt P29317). Briefly: EphA2 kinase inhibition, luciferase-coupled chemiluminescent assay (LCCA). The following applies: read-out: EphA2 IC50.
Another experiment addresses EphB4 (Homo sapiens (Human), UniProt P54760). Briefly: EphB4 kinase inhibition, 33P phosphoryl transfer assay (radiometric). Type of experiment: biochemical. On the procedure:
Phosphorylated substrate products are quantified by scintillation spectrometry.
Kinase activity and compound inhibition are investigated using one or more of the three assay formats described below. The ATP concentrations are selected near its Michaelis-Menten constant (KM) for each individual kinase. Dose-response experiments are performed at ten different inhibitor concentrations in a 384-well plate format. […] These parameters are obtained by nonlinear regression algorithm built into ActivityBase software (available from ID Business Solutions Ltd., of Guildford, Surrey, UK). ^33P Phosphoryl Transfer Assay (Radiometric)
Greiner 384-well white clear bottom high binding plates (available from Greiner Bio-One, Inc., of Longwood, Fla.) are coated with 2 μg/well of protein or peptide substrate in a 50 μL volume overnight at ambient temperature. […] The coating solution is aspirated and the plates are washed once with 50 μL of assay buffer and padded dry. Subsequently compounds and enzymes are mixed with γ ^33P-ATP (3.3 μCi/nmol) in a total volume of 20 uL in suitable assay buffers (see Table 2). For example the final EphB4 reaction solution contains 20 mM TrisHCl, pH 7.5, 10 mM MgCl2, 0.01% Triton X-100, 0.1 mM NaVO3, 5 nM EphB4 enzyme and 5 μM ATP. […] The plates are subsequently washed 6-12 times with PBST or TBS buffer.

The target of another experiment is EGFR (Homo sapiens (Human), UniProt P00533). Briefly: EGFR kinase inhibition, luciferase-coupled chemiluminescent assay (LCCA). The following applies: read-out: EGFR IC50.
Chain of EGFR (P00533 672-1210): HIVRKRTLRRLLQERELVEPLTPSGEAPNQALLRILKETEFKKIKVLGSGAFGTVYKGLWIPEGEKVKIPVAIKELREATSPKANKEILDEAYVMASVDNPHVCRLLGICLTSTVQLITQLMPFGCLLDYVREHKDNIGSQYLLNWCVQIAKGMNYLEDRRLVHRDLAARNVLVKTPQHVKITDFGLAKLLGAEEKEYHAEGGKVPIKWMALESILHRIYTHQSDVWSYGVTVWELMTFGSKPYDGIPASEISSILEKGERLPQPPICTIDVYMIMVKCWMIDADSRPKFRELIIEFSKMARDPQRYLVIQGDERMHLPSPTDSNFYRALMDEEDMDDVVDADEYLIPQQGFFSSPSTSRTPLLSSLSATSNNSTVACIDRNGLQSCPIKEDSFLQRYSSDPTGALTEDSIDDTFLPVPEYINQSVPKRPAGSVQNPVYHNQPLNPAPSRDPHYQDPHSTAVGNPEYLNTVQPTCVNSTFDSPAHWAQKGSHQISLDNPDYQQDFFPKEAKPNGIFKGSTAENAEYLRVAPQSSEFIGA

Chain of EphB4 (P54760 605-890): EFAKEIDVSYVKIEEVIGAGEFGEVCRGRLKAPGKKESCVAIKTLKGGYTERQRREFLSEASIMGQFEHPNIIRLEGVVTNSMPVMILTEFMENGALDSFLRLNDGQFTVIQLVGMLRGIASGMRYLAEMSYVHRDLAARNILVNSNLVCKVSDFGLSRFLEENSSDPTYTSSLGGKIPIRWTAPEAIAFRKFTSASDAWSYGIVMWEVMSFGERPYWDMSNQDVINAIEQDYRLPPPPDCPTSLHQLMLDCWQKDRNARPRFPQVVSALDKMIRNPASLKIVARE
Chain of EphA2 (P29317 598-890): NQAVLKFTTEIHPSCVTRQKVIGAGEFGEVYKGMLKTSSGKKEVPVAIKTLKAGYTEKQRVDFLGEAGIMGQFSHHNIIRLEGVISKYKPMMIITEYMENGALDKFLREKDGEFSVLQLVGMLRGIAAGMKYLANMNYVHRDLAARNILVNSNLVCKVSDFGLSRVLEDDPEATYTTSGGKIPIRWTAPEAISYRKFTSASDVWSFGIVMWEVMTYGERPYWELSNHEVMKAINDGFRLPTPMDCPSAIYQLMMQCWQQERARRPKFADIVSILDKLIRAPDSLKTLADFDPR

With `COc1cc2c(Nc3cc(Cl)ccc3Cl)ncnc2cc1O[C@@H]1CO[C@@H]2[C@H]1OC[C@H]2F` [Example 118, 1,4:3,6-dianhydro-2-deoxy-5-O-[4-[(2,5-dichlorophenyl)amino]-6-(methyloxy)quinazolin-7-yl]-2-fluoro-D-iditol], the IC50 on EphA2, on EphB4 and at EGFR was under 50 nM throughout.

As for `COc1cc2c(Nc3ccc(Cl)c(Cl)c3)ncnc2cc1OCC1CN(C)CCO1` (stereo not drawn) [Example 151, N-(3,4-dichlorophenyl)-7-{[(4-methylmorpholin-2-yl)methyl]oxy}-6-(methyloxy)quinazolin-4-amine], the IC50 was 50 to 1000 nM at EphA2, 50 to 1000 nM against EphB4 and under 50 nM at EGFR.

`COc1cc2c(Nc3ccc(Cl)c(Cl)c3)ncnc2cc1OCC1CC1` [Example 182, 7-[(cyclopropylmethyl)oxy]-N-(3,4-dichlorophenyl)-6-(methyloxy)quinazolin-4-amine]: the IC50 at EphA2 was 50 to 1000 nM; against EphB4 it was 50 to 1000 nM; on EGFR it was under 50 nM.

Take `COc1cc2c(Nc3ccc(Cl)c(Cl)c3)ncnc2cc1OC1CCCC1` [Example 184, 7-(cyclopentyloxy)-N-(3,4-dichlorophenyl)-6-(methyloxy)quinazolin-4-amine]: the values for the 50% inhibitory concentration (IC50) at EphA2, at EphB4 and on EGFR were 1000 to 20000 nM, 50 to 1000 nM and under 50 nM, respectively.

For the compound `COc1cc2c(Nc3ccc(Cl)c(Cl)c3)ncnc2cc1OCCC1CCCCC1` [Example 185, 7-[(2-cyclohexylethyl)oxy]-N-(3,4-dichlorophenyl)-6-(methyloxy)quinazolin-4-amine], the IC50 on EphA2 was 50 to 1000 nM; against EphB4, 50 to 1000 nM; on EGFR, under 50 nM.

For the compound `COc1cc2c(Nc3ccc(Cl)c(Cl)c3)ncnc2cc1OCC1CCCCC1` [Example 186, 7-[(cyclohexylmethyl)oxy]-N-(3,4-dichlorophenyl)-6-(methyloxy)quinazolin-4-amine], the IC50 is 50 to 1000 nM on EphA2, under 50 nM against EphB4 and under 50 nM at EGFR.

Consider `COc1cc2c(Nc3ccc(Cl)c(Cl)c3)ncnc2cc1OCCC1OCCO1` [Example 188, N-(3,4-dichlorophenyl)-7-{[2-(1,3-dioxolan-2-yl)ethyl]oxy}-6-(methyloxy)quinazolin-4-amine], for which the IC50 was 50 to 1000 nM on EphA2, 50 to 1000 nM at EphB4 and under 50 nM at EGFR.

As to `COc1cc2c(Nc3ccc(Cl)c(Cl)c3)ncnc2cc1OCCC1OCCCO1` [Example 189, N-(3,4-dichlorophenyl)-7-{[2-(1,3-dioxan-2-yl)ethyl]oxy}-6-(methyloxy)quinazolin-4-amine], the concentration for half-maximal inhibition (IC50) on EphA2 was 50 to 1000 nM; on EphB4, 50 to 1000 nM; at EGFR, under 50 nM.

Regarding `COc1cc2c(Nc3ccc(Cl)c(Cl)c3)ncnc2cc1OCCN1CCOCC1` [Example 190, N-(3,4-dichlorophenyl)-6-(methyloxy)-7-[(2-morpholin-4-ylethyl)oxy]quinazolin-4-amine], the IC50 at EphA2 is 50 to 1000 nM; against EphB4, 50 to 1000 nM; at EGFR, under 50 nM.

Regarding `COc1cc2c(Nc3ccc(Cl)c(Cl)c3)ncnc2cc1OCCN1CCCC1` [Example 191, N-(3,4-dichlorophenyl)-6-(methyloxy)-7-[(2-pyrrolidin-1-ylethyl)oxy]quinazolin-4-amine], the IC50 was 50 to 1000 nM at EphA2, 50 to 1000 nM against EphB4 and under 50 nM at EGFR.

For the compound `COc1cc2c(Nc3ccc(Cl)c(Cl)c3)ncnc2cc1OCCN1CCCCC1` [Example 192, N-(3,4-dichlorophenyl)-6-(methyloxy)-7-[(2-piperidin-1-ylethyl)oxy]quinazolin-4-amine], the IC50 at EphA2 was 1000 to 20000 nM; on EphB4, 50 to 1000 nM; on EGFR, under 50 nM.

`COc1cc2c(Nc3ccc(Cl)c(Cl)c3)ncnc2cc1OCC(=O)N1CCOCC1` [Example 195, N-(3,4-dichlorophenyl)-6-(methyloxy)-7-[(2-morpholin-4-yl-2-oxoethyl)oxy]quinazolin-4-amine]: the figures for the IC50 at EphA2, against EphB4 and on EGFR were 50 to 1000 nM, 50 to 1000 nM and under 50 nM, respectively.

Take `COc1cc2c(Nc3ccc(Cl)c(Cl)c3)ncnc2cc1OCc1nc(-c2ccc(O)c(C(N)=O)c2)cs1` [Example 200, 5-[2-({[4-[(3,4-dichlorophenyl)amino]-6-(methyloxy)quinazolin-7-yl]oxy}methyl)-1,3-thiazol-4-yl]-2-hydroxybenzamide]: the IC50 at EphA2 was 50 to 1000 nM; against EphB4 it was 50 to 1000 nM; at EGFR, under 50 nM.

For the compound `COc1cc2c(Nc3ccc(Cl)c(Cl)c3)ncnc2cc1OCc1nc(-c2cccnc2)cs1` [Example 201, N-(3,4-dichlorophenyl)-6-(methyloxy)-7-{[(4-pyridin-3-yl-1,3-thiazol-2-yl)methyl]oxy}quinazolin-4-amine], the IC50 on EphA2 is 50 to 1000 nM; at EphB4 it was 50 to 1000 nM; on EGFR, under 50 nM.

For `COc1cc2c(Nc3ccc(Cl)c(Cl)c3)ncnc2cc1OCc1nc(N2CCOCC2)no1` [Example 205, N-(3,4-dichlorophenyl)-6-(methyloxy)-7-{[(3-morpholin-4-yl-1,2,4-oxadiazol-5-yl)methyl]oxy}quinazolin-4-amine], the IC50 was 50 to 1000 nM on EphA2, under 50 nM on EphB4 and under 50 nM at EGFR.

As to `COc1cc2c(Nc3ccc(Cl)c(Cl)c3)ncnc2cc1OCc1nc(N(C)C)no1` [Example 206, N-(3,4-dichlorophenyl)-7-({[3-(dimethylamino)-1,2,4-oxadiazol-5-yl]methyl}oxy)-6-(methyloxy)quinazolin-4-amine], the IC50 is 50 to 1000 nM at EphA2, 50 to 1000 nM against EphB4 and under 50 nM on EGFR.

As for `COc1cc2c(Nc3ccc(Cl)c(Cl)c3)ncnc2cc1OCc1nc2c(s1)CNCC2` [Example 208, N-(3,4-dichlorophenyl)-6-(methyloxy)-7-[(4,5,6,7-tetrahydro[1,3]thiazolo[5,4-c]pyridin-2-ylmethyl)oxy]quinazolin-4-amine], the IC50 on EphA2 is 50 to 1000 nM; against EphB4, 50 to 1000 nM; at EGFR it was under 50 nM.

For `COc1cc2c(Nc3ccc(Cl)c(Cl)c3)ncnc2cc1OCc1nc(CN2CCOCC2)cs1` [Example 209, N-(3,4-dichlorophenyl)-6-(methyloxy)-7-({[4-(morpholin-4-ylmethyl)-1,3-thiazol-2-yl]methyl}oxy)quinazolin-4-amine], the IC50 was 50 to 1000 nM on EphA2, under 50 nM against EphB4 and under 50 nM at EGFR.

`CCN1CCOC(COc2cc3ncnc(Nc4ccc(Cl)c(Cl)c4)c3cc2OC)C1` (stereo not drawn) [Example 212, N-(3,4-dichlorophenyl)-7-{[(4-ethylmorpholin-2-yl)methyl]oxy}-6-(methyloxy)quinazolin-4-amine]: the IC50 was 50 to 1000 nM on EphA2, 50 to 1000 nM on EphB4 and under 50 nM at EGFR.

Regarding `COc1cc2c(Nc3ccc(Cl)c(Cl)c3)ncnc2cc1OCc1csc(C2CCNCC2)n1` [Example 213, N-(3,4-dichlorophenyl)-6-(methyloxy)-7-{[(2-piperidin-4-yl-1,3-thiazol-4-yl)methyl]oxy}quinazolin-4-amine], the figures for the IC50 at EphA2, on EphB4 and on EGFR were 50 to 1000 nM, under 50 nM and under 50 nM, respectively.

The values are drawn from patent US9796704B2, “Substituted quinazolines as receptor-type kinase inhibitors” (Symphony Evolution, Inc., priority 2002, dated 2017).
